Patent US8642764B1, “Julolidine conjugates and methods for their preparation and use” (Jawaharlal Nehru Centre for Advanced Scientific Research, priority 2012, dated 2014)

What was measured:
[1] = UV/Vis absorption spectra upon addition of metal ions; format: physicochemical; details: Cu^2+ 50.0 equiv; HEPES/CH3CN pH 7.2
Protocol: The photophysical properties of bi-julolidine compounds were investigated by monitoring the absorption spectral behavior upon addition of several metal ions such as Li^+, Na^+, Ba^2+, Sr^2+, Mg^2+, Al^3+, Ca^2+, Mn^2+, Fe^2+, Co^2+, Ni^2+, Zn^2+, Ag^+, Cd^2+, Hg^2+, Pb^2+ and Cu^2+ in an aqueous buffer medium (50 mM, 2-(4-(2-hydroxyethyl)-1-piperazin-yl)ethanesulfonic acid (HEPES)/CH3CN, 6:4, v/v; pH 7.2). […] With the addition of 50.0 equivalents of Co^2+, Ni^2+and Zn^2+, the absorbance intensity decreased and slightly red shifted to different extents (Ni^2+=408.5 nm; Zn^2+=410 nm; Co^2+=409 nm).
Representative examples are shown in FIG. 1 and FIG. 2 using compound 1 and 2, respectively.

[2] = UV/Vis absorption and colorimetric titration with increasing concentrations of Cu^2+; format: physicochemical; details: for extinction coefficient (ε) in the NIR region at maximum: at the Cu^2+ equivalents giving maximum NIR absorbance; for extinction coefficient (ε) at 570 nm at maximum: at the Cu^2+ equivalents giving maximum absorbance at 570 nm; for NIR λmax at maximum absorbance / final solution color: end of the Cu^2+ titration; for visual color change of solution: increasing concentration of Cu^2+ ions; for NIR band λmax / new absorption band in the visible region (λmax): on first appearance in the Cu^2+ titration (1.0 to 2.0 equivalents); for Cu^2+ added at which absorbance at 570 nm reached a maximum / Cu^2+ added at which absorbance in the NIR region reached a maximum: sequential titration, pH 7.2
Protocol: The spectral and colorimetric properties of bi-julolidine compounds were investigated by monitoring the absorption spectral behavior upon addition of increasing concentrations of Cu^2+ in an aqueous buffer medium (50 mM, 2-(4-(2-hydroxyethyl)-1-piperazin-yl)ethanesulfonic acid (HEPES)/CH3CN, 6:4, v/v; pH 7.2). During sequential titration, the absorption spectra of julolidine-carbonohydrazone compound in the visible region gradually shifted from 380 nm to 412 nm with the addition of 1.5 equivalents of Cu^2+ and the colorless solution turned to light green. Increasing the concentration of Cu^2+ in the solution of julolidine-carbonohydrazone compound from 1.5 to 2.0 equivalents led to a change in the solution color from light green to light purple. A new absorption band (λmax=570 nm) appeared in the visible region accompanied by a distinguishable NIR band with λmax centered at 930 nm. The absorbance at 570 nm reached a maximum upon addition of 6.0 equivalents of Cu^2+ with an extinction coefficient (ε) of 2×10^4 M^−1cm^−1 and then decreased with further addition of Cu^2+. The absorbance in the NIR region reached a maximum (ε=5.2×10^4 M^−1cm^−1) upon addition of a total of 8.0 equivalents of Cu^2+ with a gradual shift of λmax from 930 nm to 825 nm, and that remained unchanged upon further addition of Cu^2+. The final solution color of julolidine-carbonohydrazone compound was aqua colored.
During sequential titration of Cu^2+ with julolidine-thiocarbonohydrazone compound, two absorption bands appeared at 570 nm and 980 nm, after addition of 1.0 equivalent of Cu^2+. At that concentration of Cu^2+ ions, the color of the solution of julolidine-thiocarbonohydrazone compound changed from greenish to light purple. The absorbance at 570 nm and 980 nm were enhanced when Cu^2+ concentrations increased from 1.5 to 2.0 equivalents and the purple-colored solution turned to light violet. The absorbance at 570 nm reached a maximum at 5.0 equivalents of Cu^2+ with an extinction coefficient (ε) of 2×10^4 M^−1 cm^−1 and a consequent increase in the intensity of the NIR absorption band was observed. At that concentration of Cu^2+ ions, The solution color of julolidine-thiocarbonohydrazone compound changed from light violet to blue. […] The final solution color of julolidine-thiocarbonohydrazone compound was greenish aqua.

[3] = Specificity of Schiff-base compounds towards Cu^2+ ions (absorption spectra); format: physicochemical; details: for absorption band: absence of Cu^2+ ions; for characteristic absorbance in the NIR region / characteristic absorbance in the visible region: presence of Cu^2+ ions
Protocol: The specificity of bi-julolidine Schiff-base compounds, compound 1 and compound 2, in detecting Cu^2+ ions were investigated by monitoring the absorption spectral behavior of the compounds. The experiment was also performed using other Schiff-base compounds that were prepared by condensing different salicylaldehyde derivatives with carbohydrazide and thiocarbohydrazide (compounds 3-8, shown below).

[4] = Fluorometric detection of copper ions; format: physicochemical; details: for fluorescence emission: excitation at 430 nm, no metal ion
Protocol: The fluorometric behavior of julolidine-thiocarbonohydrazone compound was studied upon addition of 20.0 equivalents of Li^+, Na^+, Ba^2+, Sr^2+, Mg^2+, […], Ca^2+, Mn^2+, Fe^2+, CO^2+, Ni^2+, Zn^2+, Ag^+, Cd^2+, Hg^2+, Pb^2+ and Cu^2+ in an aqueous buffer medium (50 mM, 2-(4-(2-hydroxyethyl)-1-piperazin-yl)ethanesulfonic acid (HEPES)/CH3CN, 6:4, v/v; pH 7.2). […] The quenched fluorescence of julolidine-thiocarbonohydrazone compound was restored upon treating the julolidine-thiocarbonohydrazone compound —Cu^2+ complex with ethylenediaminetetraacetic acid (EDTA). Fluorescence emission of compound 2 with sequential addition of increasing concentrations (0 to 50 μM) of Cu^2+ is shown in FIG. 5B.

[5] = tested on: HEK 293T cells; experiment: Detection of Cu^2+ ions in cells using fluorescence microscopy; format: cell-based
Protocol: HEK 293T cells were grown to 50% confluency in a 30 mm dish containing Dulbecco's modified eagle medium (DMEM) and 10% fetal bovine serum (FBS) at 37° C. and 5% CO2. The cells were washed three times with phosphate-buffered saline (PBS) and stained with julolidine-thiocarbonohydrazone compound (10 μM final concentration) in the growth media without FBS for 10 minutes. The adherent cells were washed three times with PBS to remove excess compound. […] Further, the excess of Cu—(ClO4)2.6H2O was washed off with PBS and then supplemented with EDTA (10 μM) in DMEM without FBS for 10 minutes.

Row | absorption band [3] | Compound | characteristic absorbance in the NIR region [1] | characteristic absorbance in the visible region [1] [nm] | extinction coefficient (ε) in the NIR region at maximum [2] [M⁻¹ cm⁻¹] | extinction coefficient (ε) at 570 nm at maximum [2] [M⁻¹ cm⁻¹] | NIR λmax at maximum absorbance [2] [nm] | final solution color [2] | visual color change of solution [2] | NIR band λmax [2] [nm] | new absorption band in the visible region (λmax) [2] [nm] | Cu^2+ added at which absorbance at 570 nm reached a maximum [2] [equivalents] | Cu^2+ added at which absorbance in the NIR region reached a maximum [2] [equivalents] | characteristic absorbance in the NIR region [3] [nm] | characteristic absorbance in the visible region [3] [nm] | further results
1 | around 380 nm | O=C(N/N=C/c1cc2c3c(c1O)CCCN3CCC2)N/N=C/c1cc2c3c(c1O)CCCN3CCC2 [compound 1, julolidine-carbonohydrazone] | 823 nm | 495 | 52000 | 20000 | 825 | aqua colored | light green, then to light purple, and then to aqua color | 930 | 570 | 6.0 | 8.0 | 825 | 495 | absorption in the visible region, shifted from 380 nm ([2]; addition of 1.5 equivalents of Cu^2+): 412 nm
2 | around 380 nm | Oc1c(/C=N/NC(=S)N/N=C/c2cc3c4c(c2O)CCCN4CCC3)cc2c3c1CCCN3CCC2 [compound 2, julolidine-thiocarbonohydrazone] | around 820 nm | 570 | 52000 | 20000 | 820 | greenish aqua | from light green to light violet, then to light blue and then to greenish aqua | 980 | 570 | 5.0 | 15.0 | 825 | 570 | fluorescence emission in the presence of other metal ions ([4]; 20.0 equivalents of Li+, Na+, Ba2+, Sr2+, Mg2+, Ca2+, Mn2+, Fe2+, Co2+, Ni2+, Zn2+, Ag+, Cd2+, Hg2+, Pb2+): no significant changes; fluorescence intensity around 535 nm in the presence of Cu^2+ ([4]; 430 nm excitation, 20.0 equivalents of Cu^2+): quenched; quenched fluorescence after treating the Cu^2+ complex with EDTA ([4]; EDTA): restored; fluorescence emission [4]: about 535 nm; fluorescence emission ([4]; listed as Julolidine-thiocarbonohydrazone compound): around 535 nm; fluorescence in cells after staining ([5]; 10 μM, 10 minutes, HEK 293T): presence of fluorescent julolidine-thiocarbonohydrazone compound in cells; intracellular fluorescence after Cu^2+ supplementation ([5]; Cu(ClO4)2.6H2O 10 μM, 10 minutes): complete suppression of intracellular fluorescence; intracellular fluorescence after EDTA ([5]; EDTA 10 μM, 10 minutes, after Cu^2+ was washed off): recovery of intracellular fluorescence; cell permeability ([5]; HEK 293T living cells): cell-permeable
